Assay results as given in patent publication US10759766B2, “Certain chemical entities, compositions, and methods” (NeuPharma, Inc., priority 2011, dated 2020).

Key:
[1] = test system: A549 cells; experiment: Inhibition of cancer cell growth, MTT assay, A549; format: cell-based; settings: Homo sapiens, A549, 72 h exposure
Description: (§1) Inhibition of cell growth by compounds was measured using MTT assay (Mosmann, T., Journal of Immunological Methods, 1983, 65, 55-63). Tumor cell lines were purchased from ATCC (American Type Culture Collection, Manassas, Va.). All cell lines were maintained in RPMI 1640 (Hyclone) supplemented with 10% fetal bovine serum (FBS, Hyclone), glutamine (2 mM, Hyclone), and antibiotics (penicillin 100 U/mL and streptomycin 50 μg/mL) at 37° C. in a humidified atmosphere of 5% CO2 in air. Taxol (as a positive control, Sigma) and compounds were dissolved in DMSO (Sigma), and the final concentration of DMSO in the medium was 1%. Tumor cells were plated in 96-well plates at densities of about 4000 cells/well of a 96-well plate and allowed to adhere/grow for 24 h. They were then treated with various concentrations of drug for 72 h. 3-(4,5-Dimethylthiazol-2-yl)-2,5-diphenyltetrazolium bromide (MTT, Sigma) was used to determine the number of viable cells at the time of compound addition and the number of cells remaining after 72 h compound exposure. The number of cells remaining after 72 h was compared to the number of viable cells at the time of compound addition by measuring the absorbance at 570 nm, allowing for the calculation of growth inhibition.
(§2) All concentrations of compounds were tested in triplicate and controls were averaged over 4 wells. IC50 was calculated by plotting the concentration of compound vs the percentage of inhibition in treated wells using GraphPad Prism 5. […] The scale utilized in Table 6 is as follows: +++ less than 1000 nM; ++ between 1000 nM and 5000 nM; and + greater than 5000 nM. The scale utilized in Table 7 is as follows: +++ less than 2000 nM; ++ between 2000 nM and 5000 nM; and + greater than 5000 nM.

[2] = biological target: KDR (VEGFR2) (Homo sapiens (Human), UniProt P35968); experiment: Z′-LYTE kinase inhibition assay (Invitrogen), KDR; format: biochemical; settings: Z′-LYTE method; for inhibition at 1 µM: 1 μM compound, read-out: % inhibition at 1 μM against KDR
Chain of KDR (VEGFR2) (P35968 20-1356): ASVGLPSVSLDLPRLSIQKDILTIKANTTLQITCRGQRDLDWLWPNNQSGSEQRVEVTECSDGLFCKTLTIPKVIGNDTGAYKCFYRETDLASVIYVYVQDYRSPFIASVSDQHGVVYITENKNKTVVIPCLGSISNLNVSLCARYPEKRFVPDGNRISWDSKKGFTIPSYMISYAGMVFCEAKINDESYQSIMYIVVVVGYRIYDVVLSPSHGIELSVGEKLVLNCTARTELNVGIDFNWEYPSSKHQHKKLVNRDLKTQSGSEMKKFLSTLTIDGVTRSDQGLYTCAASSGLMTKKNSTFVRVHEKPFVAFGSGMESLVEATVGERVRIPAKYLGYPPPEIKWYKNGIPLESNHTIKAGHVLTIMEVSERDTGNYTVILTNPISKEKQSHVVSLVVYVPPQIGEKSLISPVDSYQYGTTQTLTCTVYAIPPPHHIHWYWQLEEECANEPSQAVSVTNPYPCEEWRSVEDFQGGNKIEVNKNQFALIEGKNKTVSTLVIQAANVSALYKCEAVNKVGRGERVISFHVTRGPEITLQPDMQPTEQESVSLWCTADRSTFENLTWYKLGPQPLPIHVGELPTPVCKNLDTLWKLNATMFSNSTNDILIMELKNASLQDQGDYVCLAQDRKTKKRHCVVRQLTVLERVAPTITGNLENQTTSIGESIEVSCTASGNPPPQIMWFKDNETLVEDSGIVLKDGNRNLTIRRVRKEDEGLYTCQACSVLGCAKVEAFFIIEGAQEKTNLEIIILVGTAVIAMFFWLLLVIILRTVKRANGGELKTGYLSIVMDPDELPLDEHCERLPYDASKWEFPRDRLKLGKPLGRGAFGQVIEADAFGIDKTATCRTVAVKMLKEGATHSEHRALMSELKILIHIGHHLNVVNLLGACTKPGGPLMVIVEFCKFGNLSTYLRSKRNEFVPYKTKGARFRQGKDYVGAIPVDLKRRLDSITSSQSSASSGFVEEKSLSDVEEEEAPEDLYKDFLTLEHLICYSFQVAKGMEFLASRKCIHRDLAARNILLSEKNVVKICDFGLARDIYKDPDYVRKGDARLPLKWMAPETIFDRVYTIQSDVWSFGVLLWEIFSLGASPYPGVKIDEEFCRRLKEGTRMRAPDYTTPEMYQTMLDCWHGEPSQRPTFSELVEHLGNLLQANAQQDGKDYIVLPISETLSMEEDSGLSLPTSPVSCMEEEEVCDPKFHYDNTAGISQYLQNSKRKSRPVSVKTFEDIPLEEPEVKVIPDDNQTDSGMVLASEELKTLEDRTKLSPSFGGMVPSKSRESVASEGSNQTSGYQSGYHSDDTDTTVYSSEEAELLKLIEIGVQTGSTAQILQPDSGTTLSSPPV
Description: (§3) Inhibitory activities Inhibitory activities of compounds against BRAF, and BRAF V600E were measured by Invitrogen using Z′-LYTE® Method as briefly described in the following. 4× Test compounds are dissolved in 1% DMSO. […] ATP solutions are diluted to a 4×ATP working concentration in Kinase Buffer (50 mM HEPES pH 7.5, 0.01% BRIJ-35, 10 mM MgCl2, 1 mM EGTA). Reaction started by 30-second shaking of mixture consisting of 2.5 μL 4× test compound, […] and 2.5 μL 4×ATP Solution on Bar-coded Corning, low volume NBS, black 384-well plate (Corning Cat. #3676). Then the mixture was incubated for 60-minute at room temperature for the kinase reaction, followed by addition of 5 μL of a 1:1024 dilution of development reagent A and 30-second plate shake. The mixture was then incubated for another 60-minute at room temperature for development reaction. Fluorescence was read by plate reader. IC50 was calculated by plotting the concentration of compound vs the percentage of inhibition in treated wells using GraphPad Prism 5.
Inhibitory activities of compounds against KDR (VEGFR2) were also measured by Invitrogen using Z′-LYTE® Method as described above with the following modification. The 2× KDR (VEGFR2)/Tyr 01 mixture is prepared in 50 mM HEPES pH 7.5, 0.01% BRIJ-35, 10 mM MgCl2, 1 mM EGTA. The final 10 μL Kinase Reaction consists of 0.5-11.7 ng KDR (VEGFR2) and 2 μM Tyr 01 in 50 mM HEPES pH 7.5, 0.01% BRIJ-35, 10 mM MgCl2, 1 mM EGTA. After the 1 hour Kinase Reaction incubation, 5 μL of a 1:256 dilution of Development Reagent B is added.
The scale utilized in Table 5 is as follows: +++ less than 100 nM; and ++ greater than 100 nM

[3] = biological target: BRAF V600E (Homo sapiens (Human), UniProt P15056, V600E); experiment: Z′-LYTE kinase inhibition assay (Invitrogen), BRAF V600E; format: biochemical; settings: 1 μM compound, Z′-LYTE method; read-out: % inhibition at 1 μM against BRAF V600E
Chain of BRAF V600E (P15056 whole entry V600E): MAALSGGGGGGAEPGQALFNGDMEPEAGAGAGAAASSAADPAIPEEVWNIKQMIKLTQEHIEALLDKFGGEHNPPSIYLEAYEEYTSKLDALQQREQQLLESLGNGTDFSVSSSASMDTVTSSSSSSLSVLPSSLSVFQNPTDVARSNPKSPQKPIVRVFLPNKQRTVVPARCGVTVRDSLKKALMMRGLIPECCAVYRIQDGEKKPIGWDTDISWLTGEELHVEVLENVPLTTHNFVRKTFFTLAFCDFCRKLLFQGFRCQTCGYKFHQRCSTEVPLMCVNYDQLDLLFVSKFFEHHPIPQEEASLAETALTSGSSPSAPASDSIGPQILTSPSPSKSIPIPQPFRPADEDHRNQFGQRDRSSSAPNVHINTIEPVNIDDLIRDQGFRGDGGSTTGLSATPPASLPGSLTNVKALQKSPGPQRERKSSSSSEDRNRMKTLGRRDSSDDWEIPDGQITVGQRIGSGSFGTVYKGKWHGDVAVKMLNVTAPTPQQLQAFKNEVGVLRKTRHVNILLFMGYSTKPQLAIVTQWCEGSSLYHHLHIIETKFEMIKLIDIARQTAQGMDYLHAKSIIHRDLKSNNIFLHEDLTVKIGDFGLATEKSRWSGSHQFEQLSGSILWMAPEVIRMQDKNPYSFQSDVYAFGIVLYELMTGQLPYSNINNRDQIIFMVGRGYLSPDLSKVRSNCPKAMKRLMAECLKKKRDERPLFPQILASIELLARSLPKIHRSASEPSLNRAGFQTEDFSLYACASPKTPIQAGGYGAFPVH
Description: as §3
The scale utilized in Table 3 is as follows: +++ less than 100 nM; and ++ greater than 100 nM.

[4] = test system: A375 cells; experiment: Inhibition of cancer cell growth, MTT assay, A375; format: cell-based; settings: Homo sapiens, A-375, 72 h exposure
Description: as §1, §2

SMILES | IC50 [1] [µM] | inhibition at 1 µM [2] [%] | inhibition at 1 µM [3] [%] | IC50 [4] [µM] | IC50 ([2]; read-out: IC50 against KDR) [µM]
O=C(Nc1cc(F)cc(C(=O)c2ccc3ncc(N4CCOCC4)nc3c2)c1)Nc1ccc(F)c(F)c1 [Compound C049, 1-(3,4-difluorophenyl)-3-(3-fluoro-5-(3-morphlinoquinoxaline-6-carbonyl)phenyl)urea] | 2 to 5 | < 70 | > 89 | 1 to 5 | –
O=C(Nc1cc(F)cc(C(=O)c2ccc3ncc(N4CCOCC4)nc3c2)c1)Nc1ccc(F)c(Cl)c1 [Compound C044, 1-(3-chloro-4-fluorophenyl)-3-(3-fluoro-5-(3-morpholinoquinoxaline-6-carbonyl)phenyl)urea] | 2 to 5 | 70 to 89 | > 89 | 1 to 5 | –
O=C(Nc1cc(F)cc(C(=O)c2ccc3ncc(N4CCOCC4)nc3c2)c1)c1ccc(Cl)c(C(F)(F)F)c1 [Compound C135, 4-chloro-N-(3-fluoro-5-(3-morpholinoquinoxaline-6-carbonyl)phenyl)-3-(trifluoromethyl)benzamide] | > 5 | < 70 | 70 to 89 | 1 to 5 | –
O=C(Nc1cccc(C(F)(F)F)c1)Nc1cc(F)c(F)c(C(=O)c2ccc3ncc(N4CCOCC4)nc3c2)c1F [Compound C034, 1-(2,4,5-trifluoro-3-(3-morpholinoquinoxaline-6-carbonyl)phenyl)-3-(3-(trifluoromethyl)phenyl)urea] | 2 to 5 | < 70 | < 70 | 1 to 5 | –
O=C(Nc1cccc(Cl)c1)Nc1cc(F)cc(C(=O)c2ccc3ncc(N4CCOCC4)nc3c2)c1 [Compound C047, 1-(3-chlorophenyl)-3-(3-fluoro-5-(3-morpholinoquinoxaline-6-carbonyl)phenyl)urea] | 2 to 5 | < 70 | > 89 | 1 to 5 | –
Cn1cc(-c2cnc3ccc(C(=O)c4cccc(NC(=O)c5ccc(Cl)c(C(F)(F)F)c5)c4)cc3n2)cn1 [Compound C130, 4-chloro-N-(3-(3-(1-methyl-1H-pyrazol-4-yl)quinoxaline-6-carbonyl)phenyl)-3-(trifluoromethyl)benzamide] | < 2 | > 89 | > 89 | 1 to 5 | –
O=C(Nc1cccc(C(F)(F)F)c1)Nc1ccc(F)c(C(=O)c2ccc3nccnc3c2)c1F [Compound C010, 1-(2,4-difluoro-3-(quinoxaline-6-carbonyl)phenyl)-3-(3-(trifluoromethyl)phenyl)urea] | > 5 | < 70 | 70 to 89 | > 5 | –
O=C(Nc1ccc(F)c(C(=O)c2ccc3ncc(N4CCNCC4)nc3c2)c1)Nc1ccc(Cl)c(C(F)(F)F)c1 [Compound C086] | 2 to 5 | > 89 | > 89 | < 1 | < 0.1
NCCNc1cnc2ccc(C(=O)c3cc(NC(=O)Nc4cccc(F)c4)ccc3F)cc2n1 [Compound C088, 1-(3-(3-((2-aminoethyl)amino)quinoxaline-6-carbonyl)-4-fluorophenyl)-3-(3-fluorophenyl)urea] | > 5 | > 89 | > 89 | 1 to 5 | –
O=C(Nc1ccc(F)cc1)Nc1ccc(F)c(C(=O)c2ccc3nccnc3c2)c1 [Compound C070, 1-(4-fluoro-3-(quinoxaline-6-carbonyl)phenyl)-3-(4-fluorophenyl)urea] | > 5 | > 89 | > 89 | 1 to 5 | –
O=C(Nc1cc(F)c(F)c(C(=O)c2ccc3ncc(N4CCOCC4)nc3c2)c1F)c1cccc(F)c1 [Compound C137, 3-fluoro-N-(2,4,5-trifluoro-3-(3-morpholinoquinoxaline-6-carbonyl)phenyl)benzamide] | > 5 | 70 to 89 | 70 to 89 | > 5 | –
O=C(Nc1ccc(Cl)cc1)Nc1cc(F)cc(C(=O)c2ccc3nccnc3c2)c1 [Compound C063, 1-(4-chlorophenyl)-3-(3-fluoro-5-(quinoxaline-6-carbonyl)phenyl)urea] | > 5 | < 70 | > 89 | 1 to 5 | –
O=C(Nc1cc(F)cc(Cl)c1)Nc1cc(F)cc(C(=O)c2ccc3ncc(N4CCOCC4)nc3c2)c1 [Compound C060, 1-(3-chloro-5-fluorophenyl)-3-(3-fluoro-5-(3-morpholinoquinoxaline-6-carbonyl)phenyl)urea] | 2 to 5 | < 70 | > 89 | 1 to 5 | –
O=C(Nc1ccc(F)c(Cl)c1)Nc1ccc(F)c(C(=O)c2ccc3nccnc3c2)c1 [Compound C073, 1-(3-chloro-4-fluorophenyl)-3-(4-fluoro-3-(quinoxaline-6-carbonyl)phenyl)urea] | > 5 | > 89 | > 89 | 1 to 5 | –
O=C(Nc1cc(F)cc(C(=O)c2ccc3nccnc3c2)c1)Nc1ccc(Cl)c(Cl)c1 [Compound C069, 1-(3,4-dichlorophenyl)-3-(3-fluoro-5-(quinoxaline-6-carbonyl)phenyl)urea] | < 2 | < 70 | > 89 | > 5 | –
O=C(Nc1cccc(F)c1)Nc1cc(F)cc(C(=O)c2ccc3nccnc3c2)c1 [Compound C025, 1-(3-fluoro-5-(quinoxaline-6-carbonyl)phenyl)-3-(3-fluorophenyl)urea] | > 5 | < 70 | > 89 | > 5 | –
O=C(Nc1cccc(F)c1)Nc1ccc(F)c(C(=O)c2ccc3nccnc3c2)c1 [Compound C013, 1-(4-fluoro-3-(quinoxaline-6-carbonyl)phenyl)-3-(3-fluorophenyl)urea] | 2 to 5 | 70 to 89 | > 89 | 1 to 5 | –
O=C(Nc1cccc(C(=O)c2ccc3ncc(N4CCOCC4)nc3c2)c1)c1ccc(Cl)c(C(F)(F)F)c1 [Compound C120, 4-chloro-N-(3-(3-morpholinoquinoxaline-6-carbonyl)phenyl)-3-(trifluoromethyl)benzamide] | 2 to 5 | 70 to 89 | > 89 | 1 to 5 | –
O=C(Nc1ccc(Cl)c(C(F)(F)F)c1)Nc1ccc(F)c(C(=O)c2ccc3nccnc3c2)c1F [Compound C012, 1-(4-chloro-3-(trifluoromethyl)phenyl)-3-(2,4-difluoro-3-(quinoxaline-6-carbonyl)phenyl)urea] | < 2 | < 70 | < 70 | 1 to 5 | –
O=C(Nc1cc(F)cc(C(=O)c2ccc3nccnc3c2)c1)Nc1ccc(F)c(F)c1 [Compound C065, 1-(3,4-difluorophenyl)-3-(3-fluoro-5-(quinoxaline-6-carbonyl)phenyl)urea] | > 5 | < 70 | > 89 | > 5 | –
